# Assay results taken from patent publication US11149004B2, “Crystalline form of EB-1020, processes for preparation and use thereof” (priority 2017, dated 2021).
# “Also recorded” adds a separate entry of the source. Like-named read-outs stand apart in the source and are kept apart here. Marks after values point to notes of the source that are not given here.
# Key:
# [1] = Kinetic solubility in FaSSIF and FeSSIF; type: physicochemical; settings: for Solubility (mg/mL) FaSSIF / Solubility (mg/mL) eSSIF: hydrochloride
# Description: High Performance Liquid Chromatography (HPLC) data for solubility test in the present disclosure were collected from an Agilent 1260 with Diode Array Detector (DAD). The method parameters are as follows:
# Simulated gastrointestinal fluids such as FaSSIF (Fasted state simulated intestinal fluids) and FeSSIF (Fed state simulated intestinal fluids) are biorelevant media. Solubility in such media is close to in vivo solubility, because these media can reflect the effects of intestinal environment on drug release better.
# A certain amount of Form CS1, prior art Form A and Form B were suspended in FaSSIF and FeSSIF to get saturated solutions. After equilibration for 4 h, concentrations (mg/mL) of the saturated solutions were measured by HPLC.
# [2] = according to WO2016205762A paragraph [00179]; cited from earlier work
# [3] = Grinding stability of Form CS1, prior art Form A and Form B; type: physicochemical; settings: ground manually for 5 minutes in a mortar, XRPD, hydrochloride
# Procedure: A certain amount of Form CS1, prior art Form A and Form B were ground manually for 5 minutes in a mortar. The XRPD patterns of Form CS1 before and after grinding are as depicted in FIG. 8 (top: before grinding; bottom: after grinding). The XRPD patterns of prior art Form A before and after grinding are as depicted in FIG. 9 (top: before grinding; bottom: after grinding). The XRPD patterns of prior art Form B before and after grinding are as depicted in FIG. 10 (top: before grinding; bottom: after grinding).
# [4] = 40° C./75% RH, two weeks; per WO2016205762A paragraph [00232]; cited from earlier work
# [5] = Storage stability of prior art Form C; type: physicochemical; settings: room temperature, a month; found by the inventors
# Description: The prior art WO2016205762A disclosed Form A, Form B and Form C of EB-1020.
# [6] = Compressibility of Form CS1 (tensile strength); type: physicochemical
# Procedure: A manual tablet press was used for compression. A certain amount of Form CS1 were added into the dies of round tooling and compressed at certain pressure manually, the tablet was stored in a desiccator for 24 h until complete elastic recovery. Hardness (H) was tested with an Intelligent Tablet Hardness Tester. Diameter (D) and thickness (L) were tested with a caliper. Tensile strength of the powder was calculated with the following formula: T=2H/πDL. Under a certain force, the greater the tensile strength, the better the compressibility.
# [7] = Adhesiveness of Form CS1 (material sticking to the punch); type: physicochemical
# Procedure: 30 mg of Form CS1 were weighed and then added into the dies of φ8 mm round tooling, compressed at 10 KN and held for 30s. The punch was weighed and the amount of material sticking to the punch was calculated. The compression was repeated twice and the cumulative amount, maximum amount and average amount of material sticking to the punch during the compression were recorded.
# [8] = Morphology (polarizing microscope, PLM); type: physicochemical
# Description: Morphology of Form CS1 of the present disclosure was checked by a polarizing microscope (PLM), and the PLM image is shown in FIG. 11. […] Form CS1 has better flowability and is more suitable for processing and preparing drug product.
# [9] = Physical stability of Form CS1 under different pressures (tableting); type: physicochemical; settings: for Crystalline form after tableting: XRPD
# Description: A certain amount of Form CS1 were compressed into pellets under different pressures with suitable tableting die. Crystalline forms before and after tableting were checked by XRPD.
# [10] = FaSSIF, equilibration 4 h, HPLC
# [11] = φ6 mm round tooling, 80 mg, 10 kN, after 24 h elastic recovery
# [12] = 30 mg, φ8 mm round tooling, 10 KN, held 30s
structure (smiles),measurement,setting,value
"Cl.c1ccc2cc([C@]34CNC[C@H]3C4)ccc2c1 [prior art Form A, (1R,5S)-1-(naphthalen-2-yl)-3-azabicyclo[3.1.0]hexane hydrochloride, reference compound]",Solubility (mg/mL) FaSSIF,[1]; [10],46.9 mg/mL
same,Solubility (mg/mL) eSSIF,"[1]; equilibration 4 h, HPLC",36.0 mg/mL
same,Morphology,[2],needle-like crystals
same,Crystallinity after grinding,[3],decreased obviously
same,Crystallinity after grinding,[3]; listed as Form A,obvious decrease of crystallinity
"Cl.c1ccc2cc([C@]34CNC[C@H]3C4)ccc2c1 [Form C, (1R,5S)-1-(naphthalen-2-yl)-3-azabicyclo[3.1.0]hexane hydrochloride]",Crystalline form after storage,[4],converted to a mixture of Form A and Form B
same,Crystalline form after storage,[5],converted to Form A
"Cl.c1ccc2cc([C@]34CNC[C@H]3C4)ccc2c1 [Form CS1, (1R,5S)-1-(naphthalen-2-yl)-3-azabicyclo[3.1.0]hexane hydrochloride]",Compressibility,[6],good compressibility
same,Tensile strength (MPa),"[6]; T=2H/πDL, φ6 mm round tooling, 80 mg, 10 kN",1.04 MPa
same,Diameter (mm),[6]; [11],6.95 mm
same,Thickness (mm),[6]; [11],2.40 mm
same,Adhesiveness,[7],low adhesiveness
same,Average amount (mg) of material sticking to the punch,[7]; [12],0* mg
same,Cumulative amount (mg) of material sticking to the punch,[7]; [12],0* mg
same,Maximum amount (mg) of material sticking to the punch,[7]; [12],0.07 mg
same,solubility at 4 h,"[1]; FaSSIF (fasted state simulated intestinal fluid), fassif, thermodynamic from solid, FaSSIF, equilibration 4 h, HPLC, read-out: Solubility (mg/mL) FaSSIF",75.3 mg/mL
same,Solubility compared with prior art Form A and Form B,[1]; FaSSIF and FeSSIF,higher
same,Solubility relative to prior art Form A and Form B,[1]; FeSSIF,almost twice
same,Solubility (mg/mL) eSSIF,"[1]; equilibration 4 h, HPLC",74.8 mg/mL
same,Crystalline form after grinding,[3],remains unchanged
same,Crystallinity after grinding,[3],remained substantially unchanged; also recorded: little change in crystallinity
same,Morphology,[8],spherical or short rod-like crystal
same,Crystalline form after tableting,[9]; Pressure 3 kN,Form CS1
same,Crystalline form after tableting,[9]; Pressure 7 kN,Form CS1
same,Crystalline form after tableting,[9]; Pressure 14 kN,Form CS1
same,Crystalline form after compression into tablets under different pressures,[9]; different pressures,remains unchanged
"Cl.c1ccc2cc([C@]34CNC[C@H]3C4)ccc2c1 [prior art Form B, (1R,5S)-1-(naphthalen-2-yl)-3-azabicyclo[3.1.0]hexane hydrochloride, reference compound]",Solubility (mg/mL) FaSSIF,[1]; [10],52.0 mg/mL
same,Solubility (mg/mL) eSSIF,"[1]; equilibration 4 h, HPLC",29.2 mg/mL
same,Morphology,[2],needle-like crystals
same,Crystalline form after grinding,[3],changed
same,Crystalline form after grinding,[3]; listed as Form B,partially converts to Form A
